Columns and labels:
Experiment in all cases: relative viability (nuclei count vs DMSO), 5 days (fraction); higher = more cells survive
NCI-H1944 = system: NCI-H1944
Summary of the method: (§1)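 A single step with final 0.05% Triton X-100, 1% formaldehyde and 1 ug/ml Hoechst fixed the cells and stained nuclei 5 days after treatment. Lung cancer cell lines in 1536-well plates had been treated by pin tool the day after seeding with one drug alone or a fixed anchor-drug dose plus five library-drug doses (not always all listed) in √10 steps, and nuclei were counted on 4× images. Relative viability is the ratio of nuclei in treated wells to nuclei in vehicle wells, taken as the median of duplicate plates.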

NCI-H596 = system: NCI-H596
Summary of the method: as §1

NCI-H650 = system: NCI-H650
Summary of the method: as §1

NCI-H1666 = system: NCI-H1666
Summary of the method: as §1

SK-MES-1 = system: SK-MES-1
Summary of the method: as §1

LK-2 = system: LK-2
Summary of the method: as §1

HCC-78 = system: HCC-78
Summary of the method: as §1

NCI-H838 = system: NCI-H838
Summary of the method: as §1

NCI-H1355 = system: NCI-H1355
Summary of the method: as §1

NCI-H1975 = system: NCI-H1975
Summary of the method: as §1

LU99A = system: LU99A
Summary of the method: as §1

NCI-H358 = system: NCI-H358
Summary of the method: as §1

LXF-289 = system: LXF-289
Summary of the method: as §1

PC-3 [JPC-3] = system: PC-3 [JPC-3]
Summary of the method: as §1

BEN = system: BEN
Summary of the method: as §1

LCLC-97TM1 = system: LCLC-97TM1
Summary of the method: as §1

NCI-H1651 = system: NCI-H1651
Summary of the method: as §1

LC-2-ad = system: LC-2-ad
Summary of the method: as §1

NCI-H2087 = system: NCI-H2087
Summary of the method: as §1

NCI-H661 = system: NCI-H661
Summary of the method: as §1

O=c1cc(N2CCOCC2)oc2c(-c3cccc4c3sc3ccccc34)cccc12 + C[C@]1(O)C[C@@H](c2nc(-c3ccc4ccc(-c5ccccc5)nc4c3)c3c(N)nccn32)C1 [Linsitinib] (partner 1 µM)
relative viability (NCI-H1944; first compound 0.01 µM): 1.16
relative viability (NCI-H1944; first compound 0.03162 µM): 1.19
relative viability (NCI-H1944; first compound 0.1 µM): 1.19
relative viability (NCI-H1944; first compound 0.3162 µM): 1.33
relative viability (NCI-H1944; first compound 1 µM): 1.16
relative viability (NCI-H596; first compound 0.01 µM): 1.14
relative viability (NCI-H596; first compound 0.03162 µM): 1.02
relative viability (NCI-H596; first compound 0.1 µM): 1.19
relative viability (NCI-H596; first compound 0.3162 µM): 0.968
relative viability (NCI-H596; first compound 1 µM): 0.921
relative viability (NCI-H650; first compound 0.01 µM): 0.794
relative viability (NCI-H650; first compound 0.03162 µM): 1.03
relative viability (NCI-H650; first compound 0.3162 µM): 1.14
relative viability (NCI-H650; first compound 1 µM): 0.679
relative viability (NCI-H1666; first compound 0.01 µM): 0.735
relative viability (NCI-H1666; first compound 0.03162 µM): 0.803
relative viability (NCI-H1666; first compound 0.1 µM): 0.972
relative viability (NCI-H1666; first compound 0.3162 µM): 0.776
relative viability (NCI-H1666; first compound 1 µM): 0.636
relative viability (SK-MES-1; first compound 0.01 µM): 1.17
relative viability (SK-MES-1; first compound 0.03162 µM): 1.02
relative viability (SK-MES-1; first compound 0.1 µM): 1.05
relative viability (SK-MES-1; first compound 0.3162 µM): 1.09
relative viability (SK-MES-1; first compound 1 µM): 1.01
relative viability (LK-2; first compound 0.01 µM): 0.585
relative viability (LK-2; first compound 0.03162 µM): 0.754
relative viability (LK-2; first compound 0.1 µM): 0.83
relative viability (LK-2; first compound 0.3162 µM): 0.554
relative viability (LK-2; first compound 1 µM): 0.69
relative viability (HCC-78; first compound 0.01 µM): 0.542
relative viability (HCC-78; first compound 0.03162 µM): 0.525
relative viability (HCC-78; first compound 0.1 µM): 0.559
relative viability (HCC-78; first compound 0.3162 µM): 0.51
relative viability (HCC-78; first compound 1 µM): 0.53
relative viability (NCI-H838; first compound 0.01 µM): 1.05
relative viability (NCI-H838; first compound 0.03162 µM): 1.03
relative viability (NCI-H838; first compound 0.1 µM): 0.951
relative viability (NCI-H838; first compound 0.3162 µM): 0.931
relative viability (NCI-H838; first compound 1 µM): 0.916
relative viability (NCI-H1355; first compound 0.01 µM): 0.772
relative viability (NCI-H1355; first compound 0.03162 µM): 0.895
relative viability (NCI-H1355; first compound 0.3162 µM): 0.819
relative viability (NCI-H1355; first compound 1 µM): 0.849
relative viability (NCI-H1975; first compound 0.01 µM): 0.833
relative viability (NCI-H1975; first compound 0.03162 µM): 0.922
relative viability (NCI-H1975; first compound 0.1 µM): 0.94
relative viability (NCI-H1975; first compound 0.3162 µM): 0.929
relative viability (NCI-H1975; first compound 1 µM): 1
relative viability (LU99A; first compound 0.01 µM): 0.524
relative viability (LU99A; first compound 0.03162 µM): 0.628
relative viability (LU99A; first compound 0.1 µM): 0.589
relative viability (LU99A; first compound 0.3162 µM): 0.518
relative viability (LU99A; first compound 1 µM): 0.627
relative viability (NCI-H358; first compound 0.01 µM): 0.631
relative viability (NCI-H358; first compound 0.03162 µM): 0.781
relative viability (NCI-H358; first compound 0.1 µM): 0.731
relative viability (NCI-H358; first compound 0.3162 µM): 0.812
relative viability (NCI-H358; first compound 1 µM): 0.736
relative viability (LXF-289; first compound 0.01 µM): 0.983
relative viability (LXF-289; first compound 0.03162 µM): 0.927
relative viability (LXF-289; first compound 0.1 µM): 0.978
relative viability (LXF-289; first compound 0.3162 µM): 0.978
relative viability (LXF-289; first compound 1 µM): 0.897
relative viability (PC-3 [JPC-3]; first compound 0.01 µM): 0.967
relative viability (PC-3 [JPC-3]; first compound 0.03162 µM): 0.865
relative viability (PC-3 [JPC-3]; first compound 0.1 µM): 0.943
relative viability (PC-3 [JPC-3]; first compound 0.3162 µM): 0.916
relative viability (PC-3 [JPC-3]; first compound 1 µM): 0.913
relative viability (BEN; first compound 0.01 µM): 0.887
relative viability (BEN; first compound 0.03162 µM): 0.916
relative viability (BEN; first compound 0.1 µM): 0.978
relative viability (BEN; first compound 0.3162 µM): 1.02
relative viability (BEN; first compound 1 µM): 0.948
relative viability (LCLC-97TM1; first compound 0.01 µM): 0.217
relative viability (LCLC-97TM1; first compound 0.03162 µM): 0.203
relative viability (LCLC-97TM1; first compound 0.3162 µM): 0.198
relative viability (LCLC-97TM1; first compound 1 µM): 0.18
relative viability (NCI-H1651; first compound 0.01 µM): 1.1
relative viability (NCI-H1651; first compound 0.03162 µM): 1.07
relative viability (NCI-H1651; first compound 0.1 µM): 1.02
relative viability (NCI-H1651; first compound 0.3162 µM): 1.05
relative viability (NCI-H1651; first compound 1 µM): 0.912
relative viability (LC-2-ad; first compound 0.01 µM): 0.975
relative viability (LC-2-ad; first compound 0.1 µM): 0.801
relative viability (LC-2-ad; first compound 0.3162 µM): 0.714
relative viability (LC-2-ad; first compound 1 µM): 0.781
relative viability (NCI-H2087; first compound 0.01 µM): 1.04
relative viability (NCI-H2087; first compound 0.03162 µM): 1.12
relative viability (NCI-H2087; first compound 0.1 µM): 0.899
relative viability (NCI-H2087; first compound 0.3162 µM): 0.899
relative viability (NCI-H2087; first compound 1 µM): 0.985
relative viability (NCI-H661; first compound 0.01 µM): 0.652
relative viability (NCI-H661; first compound 0.03162 µM): 0.579
relative viability (NCI-H661; first compound 0.1 µM): 0.571
relative viability (NCI-H661; first compound 0.3162 µM): 0.649
relative viability (NCI-H661; first compound 1 µM): 0.614

Reference: the supplement of paper PMC10307832
